Experimental data published in patent US7842715B2, “N-benzoyl- and N-benzylpyrrolidin-3-ylamines as histamine-3 antagonists” (Wyeth LLC, priority 2006, dated 2010).
Counter-ions that a name gives are not always drawn.

Key:
Histamine Receptor H3 = molecular target: T1, Histamine Receptor H3 (Homo sapiens, UniProt Q9Y5N1); experiment: Cyclic AMP assay for histamine receptor H3 antagonism activity; type: cell-based; settings: stable H3 cells; histamine plus 10 μM forskolin; 30 min at 30° C.; read-out: cAMP Kb
T1 construct: expressed in transfected cells
Experimental: Cyclic AMP Assay for Histamine Receptor H3 Antagonism Activity.
Stable H3 cells are maintained in tissue culture flask in DMEM with high glucose, 10% FBS, 1× pen/strep, 500 ug/ml GY18, until experiment. Culture media is removed and cells are washed twice with PBS w/ Ca++ and Mg++ plus 500 μM IBMX. Cells are then detached by tapping on the side of the flask and resuspend in the same buffer. Two thousand cells/well are incubated with […] histamine plus 10 μM forskolin plus various concentrations of compounds in a total volume of 30 μL in 96 well plates for 30 min at 30° C. Final test compound concentrations range from 10^-4M to 10-9.5M at full log dilutions. Cyclic AMP levels are measured using HitHunter cAMP kit from Discoverx, cat# 900041 according to manufacturer's instruction. Chemiluminescence signals are detected using Top Count (Packard). Cyclic AMP levels in control cells receiving 10 μM forskolin plus 100 nM histamine are considered 0%, and in cells receiving 10 uM forskolin plus 100 nM histamine plus 1 μM clobenpropit are considered 100%. Data are expressed as % control and analyzed using Prizm soft ware. The Kb values are calculated using the following equation, KB=EC50 or IC50/[1+(ligand/Kd)].

T1 sequence (Q9Y5N1 whole entry): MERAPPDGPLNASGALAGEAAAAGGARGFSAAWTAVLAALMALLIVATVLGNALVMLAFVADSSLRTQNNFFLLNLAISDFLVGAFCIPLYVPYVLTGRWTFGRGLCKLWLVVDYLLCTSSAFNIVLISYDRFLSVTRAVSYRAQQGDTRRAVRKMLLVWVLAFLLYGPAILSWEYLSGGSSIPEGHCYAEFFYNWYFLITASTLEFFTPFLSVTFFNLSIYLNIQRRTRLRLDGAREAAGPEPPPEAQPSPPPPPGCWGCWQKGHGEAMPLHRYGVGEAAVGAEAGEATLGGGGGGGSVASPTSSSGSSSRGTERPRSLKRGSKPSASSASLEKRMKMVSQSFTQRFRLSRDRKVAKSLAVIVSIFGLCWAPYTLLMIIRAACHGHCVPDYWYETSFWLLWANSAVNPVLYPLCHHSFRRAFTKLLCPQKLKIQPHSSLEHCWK

Row | melting point [°C] | Kb (Histamine Receptor H3) [nM] | Structure (SMILES)
1 | 98 to 100 |  | Cc1ccc(Oc2ccc(C(=O)N3CC[C@H](N4CCCC4)C3)cc2)cc1 (as salt: hydrochloride) [Example 35, (3′S)-1′-[4-(4-methylphenoxy)benzoyl]-1,3′-bipyrrolidine]
2 | 82 to 84 |  | COc1cccc(Oc2ccc(C(=O)N3CC[C@H](N4CCCC4)C3)cc2)c1 (as salt: hydrochloride) [Example 36, (3′S)-1′-[4-(3-methoxyphenoxy)benzoyl]-1,3′-bipyrrolidine]
3 | 123 to 125 |  | Cc1cc(Cl)ccc1Oc1ccc(C(=O)N2CC[C@H](N3CCCC3)C2)cc1 (as salt: hydrochloride) [Example 39, (3′S)-1′-[4-(4-chloro-2-methylphenoxy)benzoyl]-1,3′-bipyrrolidine]
4 | 124 to 126 |  | Cc1ccc(Oc2ccc(C(=O)N3CC[C@H](N4CCCC4)C3)cc2)c(Cl)c1 (as salt: hydrochloride) [Example 40, (3′S)-1′-[4-(2-chloro-4-methylphenoxy)benzoyl]-1,3′-bipyrrolidine]
5 |  | 14 | Cc1csc2c(Nc3ccc(C(=O)N4CCC(N(C)C)C4)cc3)ncnc12 (stereo not drawn) [Example 7, N-(4-{[3-(dimethylamino)pyrrolidin-1-yl]carbonyl}phenyl)-7-methylthieno[3,2-d]pyrimidin-4-amine]
6 |  | 57 | CN(C)C1CCN(C(=O)c2ccc(NC(=O)c3ccc4ccccc4n3)cc2)C1 (stereo not drawn) [Example 17, N-(4-{[3-(dimethylamino)pyrrolidin-1-yl]carbonyl}phenyl)quino-line-2-carboxamide]
